Experimental data reported in patent publication US11001802B2, “Surface of a vessel with polystyrene, nitrogen, oxygen and a static sessile contact angle for attachment and cultivation of cells” (Nunc A/S, priority 2008, dated 2021).

Key:
[1] = system: dissociated human embryonic stem cells; conditions: from approximately 1%; Wanatabe et al.; cited from earlier work
human ES cell line H9 = assay: Adhesion and growth of H9 cells passaged as single cells on surface modified plates (Examples 6, 8); format: cell-based
Protocol: Human ES cells of the cell line H9 were grown as single cells according to the methods disclosed in US patent Application LFS5163USPSP, assigned to LifeScan Inc. Cells were passaged by treatment with TrypLE™ Express for five minutes at 37° C., and seeded at 10,000 cells/cm^2 substrate surface.
Initial passaging of H9 human ES cells onto surface modified plates. Adhesion is improved with continuous 10 μM of Y-27632. This is true for the four surface modified plates tested: 2, 3, 4 and 13.
The role of Y-27632 in human ES cell adhesion and cell growth was studied in relation to the surface modified plates. H9 human ES cells were passaged 38 times with collagenase and 50 times with TrypLE™ Express followed by seeding onto Surfaces modified plates 3 or 4 (naïve cells). Alternatively H9 human ES cells passaged 38 times with collagenase and 38 times with Triple Express followed by 9 passages on surface modified plate 3 (Surface 3, acclimated cells), or surface modified plate 4 (Surface 4, acclimated cells). Cells were seeded at a density of 10^4/cm^2 in MEF conditioned media and grown for two days with or without the presence of 10 μM of Y-27632. […] Surface modified plate 4 improved attachment and/or growth of acclimated human ES cells. The cells were followed for a total of 4 days (FIGS. 19 and 20).

H9 human ES cells [2] = assay: Adherence of H9 human ES cells to surface modified plates with increasing Y-27632, crystal violet (Example 12); format: cell-based
Protocol: Passage 49 H9 human ES cells previously plated to 1:30 Matrigel™ treated plasticware and grown in MEF conditioned media supplemented with 8 ng/ml of bFGF were LIBERASE treated and plated to surface modified plates in MEF conditioned media supplemented with 8 ng/ml of bFGF and not otherwise treated or supplemented with increasing concentrations of Y-27632. 24 and 48 hours after plating H9 human ES cells to surface modified plates small colonies could be observed on Surfaces 2-4 and 13, and CellBIND™, and Primaria™ (cat. no. 353846, Becton Dickinson, Franklin Lakes, N.J.) with crystal violet stain (FIGS. 24-26). Furthermore, the adherence of H9 human ES cell colonies was improved by the addition of Y-27632 and the effect was dose responsive (FIG. 25).

H9 human ES cells [3] = assay: H9 human ES cell attachment to surface Nunc4 in defined media mTeSR (Example 14); format: cell-based; conditions: 20 micromolar Y-27632
Protocol: Passage 49 H9 human ES cells were passaged twice in the define media, mTeSR™, on Matrigel™-treated plasticware. The cells were then LIBERASE treated and plated onto the surface modified plate Nunc4 in mTeSR™ media. Cells were either plated in media with or without 20 micromolar Y-27632. Wells were also treated with various proteins for 30 minutes prior to seeding cells (no treatment, 0.1% gelatin, 2% BSA, 0.34 mg/ml rat Collagen I, 1:1000 Matrigel™, or 1:5000 Matrigel™) to determine if these proteins could promote human ES cell adhesion in defined media with or without Y-27632 (FIG. 28). […] However, when 20 micromolar Y-27632 was added to define mTeSR™ media, human ES cells adhered to surface Nunc4. Furthermore, this adherence was equivalent in untreated wells and wells treated with 0.1% gelatin, 2% BSA, and 0.34 mg/ml rat Collagen I. There was a modest increase in human ES cell attachment in wells with low concentrations of Matrigel™ (1:1000 and 1:5000 dilutions), however these concentrations of Matrigel™ were insufficient to promote adhesion in the absence of Y-27632.

human ES cell line H1 = assay: Attachment, plating efficiency and passage time of H1 human ES cells on surface modified plates (Examples 3, 4); format: cell-based
Protocol: Human ES cells of the line H1, at passage 49 were maintained in MEF conditioned media on Nunclon Delta™ plates treated with a 1:30 dilution of growth factor reduced Matrigel™, prior to study. Cells were dissociated from the surface for passage by 1 mg/ml collagenase dissociation or by manual scraping.
These cells were then seeded onto two untreated wells of the surface modified plates (6-well format). Additionally, one well of each plate was treated with 0.1% xeno-free human gelatin as a control. Cells were also plated directly onto untreated and gelatin-treated wells of Costar™ (cat. no. 3516; Corning, Corning, N.Y.), Falcon™ (cat. no. 351146; Becton Dickinson, Franklin Lakes, N.J.) and Nunclon Delta™ (cat. no. 140675; Thermo Fisher Scientific, Roskilde, Denmark) 6-well plates for negative controls, and plated onto wells treated with 1:30 dilution of growth factor reduced Matrigel™ to provide as positive controls. In all treatments cells were maintained in MEF conditioned media.
Human ES cells of the line H1, at passage 49 were maintained in MEF conditioned media on Nunclon Delta™ plates treated with a 1:30 dilution of growth factor reduced Matrigel™, prior to study. Cells were dissociated from the surface for passage by 1 mg/ml collagenase dissociation.
These cells were then seeded onto untreated wells of surface modified plates (6-well format). […]

C[C@@H](N)[C@H]1CC[C@H](C(=O)Nc2ccncc2)CC1 [Surface Y-27632, Y-27632]
cloning efficiency [1]: approximately 27% | attachment of naïve single cells (human ES cell line H9; 10 μM Y-27632, surface modified plates 3 and 4): improves attachment | attachment of acclimated single cells (human ES cell line H9; 10 μM Y-27632, surface modified plates 3 or 4): did not improve attachment | adhesion of H9 cells passaged with TrypLE Express (human ES cell line H9; continuous 10 μM Y-27632, surface modified plates 2, 3, 4 and 13): improved | human ES cell attachment versus untreated (H9 human ES cells [2]; 1 to 2 micromolar Y-27632): minimal improvement | adherence of human ES cells to surface modified plates (H9 human ES cells [2]; 4 to 20 micromolar Y-27632): promoted adherence | adherence of human ES cells in defined mTeSR media (H9 human ES cells [3]): adhered | plating efficiency (human ES cell line H1; H1 (p52) on surface modified plates, 10 μM Y-27632 in MEF conditioned media for 48 hours): significantly increased plating efficiency | readiness for passage 4 days after plating (human ES cell line H1; H1 on surface modified plates, 10 μM Y-27632 or 0.5 ng/ml C3 exotransferase): could be passaged 4 days after plating
